Experimental data: patent US20090176866A1, “Complexes having adjuvant activity” (priority 2004, published 2009)

Assays:
[1] = system: intracellular Leishmania donovani amastigotes; assay: Inhibition of intracellular Leishmania donovani amastigote growth in human monocyte derived macrophages (infection index); format: cell-based; settings: 72 h at 32° C.
Protocol: (§1) Leishmania donovani amastigotes were used to infect human monocyte derived macrophages that were maintained in RPMI 1640 (Invitrogen) supplemented with 10% human serum (heat inactivated at 56° C. for 1 hour) and 200 IU/ml penicillin and 200 μg/ml streptomycin. The cells were plated at 10^6 cells/ml into Lab-Tek Chamber Slides (Nunc) and incubated at 37° C./5% CO2 for 3 days. The media was then aspirated from the chamber slides and an equal volume of fresh media added back in which the amastigote concentration had been adjusted to give a parasite:cell infection ratio of 5:1. The cells were then incubated at 32° C. for 20 h to enable infection of the macrophages to become established. Media was then aspirated from the chamber slides and replaced with doubling dilutions of the test compound. The cells were then incubated at 32° C. for 72 h. After washing with PBS, the chambers were detached, the slides allowed to dry and then fixed in methanol. Each slide was then stained with Giemsa and examined microscopically. A total of 250 cells were counted to determine the number of infected and uninfected cells.
(§2) The infection index was calculated as the average number of parasites/cell multiplied by the percentage of infected cells.

human red blood cells = assay: Red blood cell lysis; format: cell-based; settings: 24 h incubation; 3 donors
Protocol: A 2% v/v solution of human red blood cells was prepared in RPMI 1640. […] A 1% solution of Triton X-100 was used as a positive reference for 100% cell lysis. Dextran and poly-L lysine were used as negative and positive controls respectively. An equal volume of the sample and red blood cells were aliquoted into a 96 well microbtre plate and incubated at 37° C. After 1 h and after 24 h, each sample was centrifuged (2,000 g, 10 min) and the supernatant added to a 96 well microtitre plate. The absorbance was measured at 490 nm using a spectrophotometer. The degree of lysis was expressed as a percentage of the 100% lysis caused by Triton X-100.
Lyophilised amphotericin B-PMMA-Na was stored at 4° C. under argon for 4 months. It was also solubilised in 5% dextrose at a concentration of 1 mg/ml and stored at 4° C. for 7 months under argon.
Freshly prepared, clinical grade amphotericin B was used as a reference for the comparison. Incubations were undertaken for 1 h and 6 h.

visceral leishmaniasis = settings: intravenous, daily or every other day, 15-20 infusions at 0.75-1 mg/kg/day; cited from earlier work
[2] = system: intracellular Leishmania mexicana amastigotes; assay: Inhibition of intracellular Leishmania mexicana amastigote growth in human monocyte derived macrophages (infection index); format: cell-based; settings: 72 h at 32° C.
Protocol: as §1, with “mexicana” for “donovani”
as §2

[3] = system: Leishmania mexicana promastigotes; assay: Viability of Leishmania mexicana promastigotes (MTT); format: cell-based; settings: 24 h + 24 h MTT at 26° C.
Protocol: (§3) Leishmania mexicana promastgotes were used for these experiments. They were maintained in Schneider's Drosophila growth medium (Invitrogen) supplemented with 15% fetal calf serum (heat inactivated at 56° C. for 1 hour) and gentamicin (1 mg/100 ml). The parasite concentration was adjusted to 2×10^6 parasites/ml. Doubling dilutions of the test compound were prepared at twice the desired final concentration in growth media. An equal volume of the drug and the parasite suspension were then mixed in a 96 well plate and incubated for 24 h at 26° C. At this time, MTT (5 mg/ml) was added and the plate incubated for a further 24 h at 26° C. The plate was then centrifuged (2000 g, 5 min), the supernatant discarded and the pellet resuspended in 100 μl DMSO. Absorbance was measured at 570 nm using a spectrophotometer. The results were expressed as the percentage viability of the promastigotes with 100% viability being determined using the OD of the untreated, replicating promastigotes in the control wells.

[4] = system: Leishmania donovani promastigotes; assay: Viability of Leishmania donovani promastigotes (MTT); format: cell-based; settings: 24 h + 24 h MTT at 26° C.
Protocol: as §3, with “donovania promastigotes” for “mexicana promastgotes”, “Growth Media 199” for “Drosophila growth medium (Invitrogen)”

[5] = system: Leishmania donovani amastigotes; assay: Mouse model of visceral leishmaniasis (liver parasite burden); format: in vivo, BALB/c mice
Protocol: Leishmania donovani strain (MHOM/ET/67/L82) amastigotes were collected from the spleens of heavily infected donor Syrian Hamsters-Mesocritetus auratus. An inoculum containing 7.5-10×10^7 amastigotes/mL was prepared. Female BALB/c mice (20 g) that were specified pathogen free were infected intravenously with 200 μL (equivalent to 1.5-2×10^7 amastigotes) on day 0. The end point of infection was evaluated by microscopic reading on day 14 to check for the level of infection in one mouse, and on day 21 post-infection of Giemsa stained liver impressions to determine the total parasite burden.
The following compounds were administered intravenously according to the following regimens:—
There were 5 animals in each group. […] All drug preparations were filtered using a […] syringe filter. The intravenous volume of injection was 200 μL per injection.
Groups of mice were weighed before and after treatment as a measure of toxicity and the percentage weight change noted. On day 21 after infection (which was 3 days after the completion of treatment), the parasite burden was determined microscopically from methanol fixed liver impression slides stained with 10% Giemsa. The number of amastigotes/500 liver cells were counted microscopically and the results expressed as a percentage of the untreated control.

SMILES: C[C@@H]1[C@H](O)[C@@H](C)/C=C/C=C/C=C/C=C/C=C/C=C/C=C/[C@H](O[C@@H]2O[C@H](C)[C@@H](O)[C@H](N)[C@@H]2O)C[C@@H]2O[C@](O)(C[C@@H](O)C[C@@H](O)[C@H](O)CC[C@@H](O)C[C@@H](O)CC(=O)O[C@H]1C)C[C@H](O)[C@H]2C(=O)O [clinical grade amphotericin B, amphotericin B]
- 50% inhibition of intracellular amastigote growth [1]: 0.54 µg/mL
- 90% inhibition of intracellular amastigote growth [1]: 2.31 µg/mL
- red cell lysis (toxicity) (human red blood cells): 100%
- Long-term cure rates (visceral leishmaniasis): 97%
- 50% inhibition of intracellular amastigote growth [2]: 0.14 µg/mL
- 90% inhibition of intracellular amastigote growth [2]: 0.95 µg/mL
- 90% lethal dose (LD90) [3]: 1.49 µg/mL
- 90% lethal dose (LD90) [4]: 1.91 µg/mL
- killing activity of Leishmania donovani amastigotes compared to the controls ([5]; 1 mg/kg i.v. days 14, 16 and 18, liver, day 21, P<0.0001): significant killing activity
- anti-leishmanial activities compared with each other ([5]; clinical grade amphotericin B, Ambisome, amphotericin B-PMAA-Na (2 mg/kg), P<0.05 as printed): not significantly different from each other
